Results reported in ChEMBL document CHEMBL1641568, “An on-bead assay for the identification of non-natural peptides targeting the androgen receptor-cofactor interaction” (Bioorg Med Chem, 2011).
Square brackets hold non-standard residues; d marks the D form. Peptide text beside a SMILES is read from it. Phe(4-Cl) = N[C@@H](Cc1ccc(Cl)cc1)C(=O)O; 2Nal = N[C@@H](Cc1ccc2ccccc2c1)C(=O)O; Cha = N[C@@H](CC1CCCCC1)C(=O)O

Assay: Inhibition of human GST-tagged androgen receptor-ligand binding domain/cofactor interaction assessed as fluorescence polarization by competition assay

Compound	Ki [nM]
H-SSRFESWFAGEKESRG-OH	940
CC(C)C[C@H](NC(=O)[C@H](CO)NC(=O)[C@H](CCC(=O)O)NC(=O)[C@H](Cc1ccc2ccccc2c1)NC(=O)[C@H](CCCNC(=N)N)NC(=O)[C@H](CO)NC(=O)[C@@H](N)CO)C(=O)N[C@@H](Cc1c[nH]c2ccccc12)C(=O)N[C@@H](C)C(=O)NCC(=O)N[C@@H](CCC(=O)O)C(=O)N[C@@H](CCCCN)C(=O)N[C@@H](CCC(=O)O)C(=O)N[C@@H](CO)C(=O)N[C@@H](CCCNC(=N)N)C(=O)NCC(=O)O (H-SSR[2Nal]ESLWAGEKESRG-OH)	3680
C[C@H](NC(=O)[C@H](Cc1c[nH]c2ccccc12)NC(=O)[C@H](CC1CCCCC1)NC(=O)[C@H](CO)NC(=O)[C@H](CCC(=O)O)NC(=O)[C@H](Cc1ccc2ccccc2c1)NC(=O)[C@H](CCCNC(=N)N)NC(=O)[C@H](CO)NC(=O)[C@@H](N)CO)C(=O)NCC(=O)N[C@@H](CCC(=O)O)C(=O)N[C@@H](CCCCN)C(=O)N[C@@H](CCC(=O)O)C(=O)N[C@@H](CO)C(=O)N[C@@H](CCCNC(=N)N)C(=O)NCC(=O)O (H-SSR[2Nal]ES[Cha]WAGEKESRG-OH)	470
H-SSRFESLFAGEKESRG-OH	760
H-SSRWESWFAGEKESRG-OH	82900
CC(C)C[C@H](NC(=O)[C@H](CCCNC(=N)N)NC(=O)[C@H](CO)NC(=O)[C@@H](N)CO)C(=O)N[C@@H](CCC(=O)O)C(=O)N[C@@H](CO)C(=O)N[C@@H](Cc1c[nH]c2ccccc12)C(=O)N[C@@H](Cc1ccc(Cl)cc1)C(=O)N[C@@H](C)C(=O)NCC(=O)N[C@@H](CCC(=O)O)C(=O)N[C@@H](CCCCN)C(=O)N[C@@H](CCC(=O)O)C(=O)N[C@@H](CO)C(=O)N[C@@H](CCCNC(=N)N)C(=O)NCC(=O)O (H-SSRLESW[Phe(4-Cl)]AGEKESRG-OH)	166000
C[C@H](NC(=O)[C@H](CC1CCCCC1)NC(=O)[C@H](Cc1ccccc1)NC(=O)[C@H](CO)NC(=O)[C@H](CCC(=O)O)NC(=O)[C@H](Cc1c[nH]c2ccccc12)NC(=O)[C@H](CCCNC(=N)N)NC(=O)[C@H](CO)NC(=O)[C@@H](N)CO)C(=O)NCC(=O)N[C@@H](CCC(=O)O)C(=O)N[C@@H](CCCCN)C(=O)N[C@@H](CCC(=O)O)C(=O)N[C@@H](CO)C(=O)N[C@@H](CCCNC(=N)N)C(=O)NCC(=O)O (H-SSRWESF[Cha]AGEKESRG-OH)	2440
